Test [1] relates to LC3-II. Nature of the test: LC3-II levels in IE cells after chloroquine. In kind it is cell-based, human. The note with it: chloroquine treatment.
Test [2] has as its system Life-extended endometriotic (IE) cells. Nature of the test: Crystal violet growth/survival of life-extended endometriotic (IE) cells treated with chloroquine. The note with it: 25 μM chloroquine, up to about 96 hours, crystal violet absorbance. The class given is cell-based, human. As to the method:
Life-extended endometriotic (IE) cells were treated with 25 μM chloroquine for up to about 96 hours. Cells were then stained with crystal violet and measured for overall growth at an absorbance of […], using a Bioteck plate reader.

Consider `CCN(CC)CCCC(C)Nc1ccnc2cc(Cl)ccc12` (centres unmarked) [chloroquine], for which the LC3-II levels entry in test [1] is “marked increase”. In test [2], the cellular survival entry is given as “dramatically inhibited”.

(Values after patent US10695341B2, “Compositions and methods for treating endometriosis” (UNIVERSITY OF SOUTH FLORIDA, priority 2014, dated 2020).)
